target: T1, recombinant full-length human prolyl endopeptidase (PREP) (Homo sapiens, UniProt P48147); test: Biochemical human prolyl endopeptidase (PREP) assay with fluorescently labelled substrate; settings: substrate Z-Gly-Pro-AMC 50 μM, 32° C., 60 min; some as mean values from multiple independent determinations
T1 construct: To recombinant full-length human prolyl endopeptidase (PREP, R&D-Systems, 4308-SE); purchased R&D-Systems 4308-SE
T1 sequence (P48147 1-710): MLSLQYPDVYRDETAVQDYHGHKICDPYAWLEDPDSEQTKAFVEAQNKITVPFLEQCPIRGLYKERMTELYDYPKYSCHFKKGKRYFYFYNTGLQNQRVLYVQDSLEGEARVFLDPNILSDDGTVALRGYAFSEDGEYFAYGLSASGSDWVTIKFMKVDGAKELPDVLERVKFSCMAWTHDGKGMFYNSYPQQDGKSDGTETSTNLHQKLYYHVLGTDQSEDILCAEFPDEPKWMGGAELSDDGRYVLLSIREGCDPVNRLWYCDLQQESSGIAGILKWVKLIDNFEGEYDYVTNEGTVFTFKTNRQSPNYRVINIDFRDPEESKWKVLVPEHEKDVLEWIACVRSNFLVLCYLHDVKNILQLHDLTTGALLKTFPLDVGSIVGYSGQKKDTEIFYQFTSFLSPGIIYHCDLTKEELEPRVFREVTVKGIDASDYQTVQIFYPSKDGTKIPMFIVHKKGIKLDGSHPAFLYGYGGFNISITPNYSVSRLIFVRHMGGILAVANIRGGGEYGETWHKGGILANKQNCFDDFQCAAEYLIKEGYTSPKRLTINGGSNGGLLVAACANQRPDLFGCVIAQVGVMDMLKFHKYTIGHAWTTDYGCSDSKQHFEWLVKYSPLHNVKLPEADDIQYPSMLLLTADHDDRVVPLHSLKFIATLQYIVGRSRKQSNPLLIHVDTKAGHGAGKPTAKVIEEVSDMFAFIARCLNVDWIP
How it was run: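 Initial rates of fluorescence increase from 50 μM Z-Gly-Pro-AMC cleavage (ex 360/em 465 nm, 60 min, 32° C) give percent PREP activity versus no-compound control, and IC50 is interpolated. Enzyme used at 0.4 nM (final, example) in Tris pH 7.5 with EDTA, GSH, BSA and Brij-35; compounds span 1 nM to 30 μM.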

| SMILES | IC50 |
| --- | --- |
| O=C(C1CCCc2nn(CC3CCC(F)(F)CC3)c(=O)n21)N1CCCC1 (racemic) [Example 41, (5RS)-2-[(4,4-Difluorocyclohexyl)methyl]-5-(pyrrolidin-1-ylcarbonyl)-5,6,7,8-tetrahydro[1,2,4]triazolo[4,3-a]pyridin-3(2H)-one] | 13 nM |
| CC(c1ccc(C(F)(F)F)nc1)n1nc2n(c1=O)[C@H](C(=O)N1CC[C@H](F)C1)CCC2 (single isomer, unassigned) [Example 216] | 0.56 nM |
| O=C(C1CC(C(F)(F)F)Cc2nn(Cc3ccc(Cl)nc3)c(=O)n21)N1CC[C@H](F)C1 (single isomer, unassigned) [Example 244] | 11 nM |
| O=C([C@@H]1CCCc2nn(CCc3ccc(F)cc3)c(=O)n21)N1CC(F)(F)C1 [Example 345, (5S)-5-[(3,3-Difluoroazetidin-1-yl)carbonyl]-2-[2-(4-fluorophenyl)ethyl]-5,6,7,8-tetrahydro[1,2,4]triazolo[4,3-a]pyridin-3(2H)-one] | 6.4 nM |
| O=C(C1CC(C(F)(F)F)Cc2nn(Cc3ccc(Cl)nc3)c(=O)n21)N1CC[C@@H](F)C1 (mixture of isomers) [Example 245, (5RS,7RS)-2-[(6-Chloropyridin-3-yl)methyl]-5-{[(3R)-3-fluoropyrrolidin-1-yl]carbonyl}-7-(trifluoromethyl)-5,6,7,8-tetrahydro[1,2,4]triazolo[4,3-a]pyridin-3(2H)-one] | 6.9 nM |
| O=C(C1CC(C(F)(F)F)Cc2nn(Cc3ncc(C(F)(F)F)cc3Cl)c(=O)n21)N1CC[C@H](F)C1 (single isomer, unassigned) [Example 563] | 0.33 nM |
| O=C([C@@H]1CCCc2nn(Cc3ncc(Cl)cc3Cl)c(=O)n21)N1CC(F)(F)C1 [Example 397, (5S)-2-[(3,5-Dichloropyridin-2-yl)methyl]-5-[(3,3-difluoroazetidin-1-yl)carbonyl]-5,6,7,8-tetrahydro[1,2,4]triazolo[4,3-a]pyridin-3(2H)-one] | 6.9 nM |
| O=C(C1C(C(F)(F)F)CCc2nn(Cc3ccnc(C(F)(F)F)c3F)c(=O)n21)N1CC[C@H](F)C1 (mixture of isomers) [Example 280, (5RS,6RS)-5-{[(3S)-3-Fluoropyrrolidin-1-yl]carbonyl}-2-{[3-fluoro-2-(trifluoromethyl)pyridin-4-yl]methyl}-6-(trifluoromethyl)-5,6,7,8-tetrahydro[1,2,4]triazolo[4,3-a]pyridin-3(2H)-one] | 3.8 nM |
| O=C([C@@H]1CCCc2nn(Cc3nc(C(F)(F)F)no3)c(=O)n21)N1C[C@@H](F)[C@@H](F)C1 [Example 500, (5S)-5-{[(3R,4S)-3,4-Difluoropyrrolidin-1-yl]carbonyl}-2-{[3-(trifluoromethyl)-1,2,4-oxadiazol-5-yl]methyl}-5,6,7,8-tetrahydro[1,2,4]triazolo[4,3-a]pyridin-3(2H)-one] | 5.15 nM |
| N#C[C@@H]1CCCN1C(=O)[C@@H]1CCCc2nn(Cc3csc(C(F)(F)F)n3)c(=O)n21 [Example 367, (2S)-1-{[(5S)-3-Oxo-2-{[2-(trifluoromethyl)-1,3-thiazol-4-yl]methyl}-2,3,5,6,7,8-hexahydro[1,2,4]triazolo[4,3-a]pyridin-5-yl]carbonyl}pyrrolidine-2-carbonitrile] | 0.425 nM |
| O=C(C1CCc2nn(Cc3ccc(C(F)(F)F)nc3)c(=O)n21)N1C[C@@H](F)[C@@H](F)C1 (mixture of isomers) [Example 173, (5RS)-5-{[(3R,4S)-3,4-Difluoropyrrolidin-1-yl]carbonyl}-2-{[6-(trifluoromethyl)pyridin-3-yl]methyl}-2,5,6,7-tetrahydro-3H-pyrrolo[2,1-c][1,2,4]triazol-3-one] | 5.85 nM |
| O=C([C@@H]1CCCc2nn(CCc3ccc(F)cc3)c(=O)n21)N1C[C@@H](F)[C@@H](F)C1 [Example 344, (5S)-5-{[(3R,4S)-3,4-Difluoropyrrolidin-1-yl]carbonyl}-2-[2-(4-fluorophenyl)ethyl]-5,6,7,8-tetrahydro[1,2,4]triazolo[4,3-a]pyridin-3(2H)-one] | 0.53 nM |
| O=C(C1CC(C(F)(F)F)Cc2nn(Cc3ccc(Cl)cn3)c(=O)n21)N1CCC(F)(F)C1 (single isomer, unassigned) [Example 567, (5RS,7RS)-2-[(5-Chloropyridin-2-yl)methyl]-5-[(3,3-difluoropyrrolidin-1-yl)carbonyl]-7-(trifluoromethyl)-5,6,7,8-tetrahydro[1,2,4]triazolo[4,3-a]pyridin-3(2H)-one] | 2.7 nM |
| O=C(C1C(C(F)(F)F)CCc2nn(Cc3ncc(Cl)cc3F)c(=O)n21)N1C[C@@H](F)[C@@H](F)C1 (mixture of isomers) [Example 291, (5RS,6RS)-2-[(5-Chloro-3-fluoropyridin-2-yl)methyl]-5-{[(3R,4S)-3,4-difluoropyrrolidin-1-yl]carbonyl}-6-(trifluoromethyl)-5,6,7,8-tetrahydro[1,2,4]triazolo[4,3-a]pyridin-3(2H)-one] | 96.5 nM |

The next lines start with the values.

| IC50 | SMILES |
| --- | --- |
| 1.1 nM | O=C([C@@H]1CCCc2nn(Cc3ccnc(C(F)(F)F)c3)c(=O)n21)N1CC[C@H](F)C1 [Example 450, (5S)-5-{[(3S)-3-Fluoropyrrolidin-1-yl]carbonyl}-2-{[2-(trifluoromethyl)pyridin-4-yl]methyl}-5,6,7,8-tetrahydro[1,2,4]triazolo[4,3-a]pyridin-3(2H)-one] |
| 0.73 nM | Cc1ccc(Cn2nc3n(c2=O)[C@H](C(=O)N2CCCC2)CCC3)cc1 [Example 26, (5S)-2-(4-Methylbenzyl)-5-(pyrrolidin-1-ylcarbonyl)-5,6,7,8-tetrahydro[1,2,4]triazolo[4,3-a]pyridin-3(2H)-one] |
| 2.1 nM | O=C([C@@H]1CCCc2nn(Cc3ccc(Cl)c(F)c3)c(=O)n21)N1CC(F)(F)C1 [Example 465, (5S)-2-(4-Chloro-3-fluorobenzyl)-5-[(3,3-difluoroazetidin-1-yl)carbonyl]-5,6,7,8-tetrahydro[1,2,4]triazolo[4,3-a]pyridin-3(2H)-one] |
| 19 nM | O=C([C@@H]1CCCc2nn(Cc3ccc(F)c(Cl)c3)c(=O)n21)N1CCC2CC21 (single isomer, unassigned) [Example 202] |
| 1.1 nM | O=C([C@@H]1CCCc2nn(Cc3ccc(C(F)(F)F)nc3)c(=O)n21)N1CC[C@H](F)C1 [Example 427, (5S)-5-{[(3S)-3-Fluoropyrrolidin-1-yl]carbonyl}-2-{[6-(trifluoromethyl)pyridin-3-yl]methyl}-5,6,7,8-tetrahydro[1,2,4]triazolo[4,3-a]pyridin-3(2H)-one] |
| 1.4 nM | O=C([C@@H]1CCCc2nn(Cc3ccc(F)c(F)c3)c(=O)n21)N1CCC(F)(F)C1 [Example 468, (5S)-2-(3,4-Difluorobenzyl)-5-[(3,3-difluoropyrrolidin-1-yl)carbonyl]-5,6,7,8-tetrahydro[1,2,4]triazolo[4,3-a]pyridin-3(2H)-one] |
| 0.62 nM | O=C([C@@H]1CCCc2nn(Cc3ncc(Cl)cc3F)c(=O)n21)N1CC[C@H](F)C1 [Example 568, (5S)-2-[(5-Chloro-3-fluoropyridin-2-yl)methyl]-5-{[(3S)-3-fluoropyrrolidin-1-yl]carbonyl}-5,6,7,8-tetrahydro[1,2,4]triazolo[4,3-a]pyridin-3(2H)-one] |
| 0.38 nM | O=C([C@@H]1CCCc2nn(Cc3ccc(Cl)nc3)c(=O)n21)N1C[C@@H](F)[C@@H](F)C1 [Example 424, (5S)-2-[(6-Chloropyridin-3-yl)methyl]-5-{[(3R,4S)-3,4-difluoropyrrolidin-1-yl]carbonyl}-5,6,7,8-tetrahydro[1,2,4]triazolo[4,3-a]pyridin-3(2H)-one] |
| 1.3 nM | Cc1ccc(Cn2nc3n(c2=O)[C@H](C(=O)N2CCCC2)CC3)cc1 [Example 157, (5S)-2-(4-Methylbenzyl)-5-(pyrrolidin-1-ylcarbonyl)-2,5,6,7-tetrahydro-3H-pyrrolo[2,1-c][1,2,4]triazol-3-one] |
| 0.15 nM | N#C[C@@H]1CCCN1C(=O)[C@@H]1CCCc2nn(Cc3ccc(Cl)cn3)c(=O)n21 [Example 512, (2S)-1-({(5S)-2-[(5-Chloropyridin-2-yl)methyl]-3-oxo-2,3,5,6,7,8-hexahydro[1,2,4]triazolo[4,3-a]pyridin-5-yl}carbonyl)pyrrolidine-2-carbonitrile] |
| 0.27 nM | O=C([C@@H]1CCCc2nn(Cc3ccc(F)c(Cl)c3)c(=O)n21)N1C[C@@H](F)[C@@H](F)C1 [Example 456, (5S)-2-(3-Chloro-4-fluorobenzyl)-5-{[(3R,4S)-3,4-difluoropyrrolidin-1-yl]carbonyl}-5,6,7,8-tetrahydro[1,2,4]triazolo[4,3-a]pyridin-3(2H)-one] |
| 0.13 nM | N#C[C@@H]1CCCN1C(=O)[C@@H]1CCCc2nn(Cc3ncc(Cl)cc3Cl)c(=O)n21 [Example 513, (2S)-1-({(5S)-2-[(3,5-Dichloropyridin-2-yl)methyl]-3-oxo-2,3,5,6,7,8-hexahydro[1,2,4]triazolo[4,3-a]pyridin-5-yl}carbonyl)pyrrolidine-2-carbonitrile] |
